Read-outs that look alike come from different tables or passages of the source. Each block holds one compound with its values, some of them ahead of it.
Assays:
[1] = tested on: R1 murine ES cell line; test: Attachment efficiency of ES cells post vitrification; type: cell-based; details: 0.5 M trehalose, 2 M PROH, or both; QMC plunged into liquid nitrogen; day 1; FIG. 15
From the text: (§1) For the purpose of evaluating the maintenance of embryonic stem cell pluripotency, a green fluorescent protein (GFP)-reporter cell system was used. The R1 murine ES cell line which expresses GFP under control of the Oct4 promoter was kindly provided by Andras Nagy (U. Toronto)(Nagy et al., Proc. Nat. Acad. Sci. USA 90:8424, 1993). The ES cell maintenance media consisted of Knockout DMEM+15% Knockout Serum Replacement (Invitrogen, Carlsbad, Calif.) containing 1000 U/ml LIF (Chemicon, Temecula, Calif.). Feeder layer-free ES cells were continually passaged in 0.1% gelatin-coated 75 cm^2 flasks in 5% CO2 humidified air at 37° C.
(§2) On the day of experiment, the attached cells were lightly trypsinized for 3-5 minutes and collected. The cells were pelleted at 100×g for 5 minutes and resuspended in cold stem cell media supplemented with 1.5 M 1,2-propanediol (Sigma, St Louis, Mo.) and incubated on ice for 10 minutes. […]
Cell attachment and growth was determined by counting the number of cells per field under a 10× objective. […] The attachment efficiency was calculated as the ratio of the total number of cells per field of a cryopreserved sample to that of the control non-frozen sample at day 1. To assess the proliferation of the attached cells, the total number of cells per field was further monitored for 4 days.

[2] = Critical cooling rate to achieve vitrification (Vcc) from Boutron's semi-empirical theory and DSC constant K4; type: physicochemical
From the text: The critical cooling rate to achieve vitrification (Vcc) is a function of the concentration of cryoprotectant. It has been extensively studied in the case of 1,2-propanediol and other alcohols with relevance in cryobiology, although mainly in the range of cooling rates achievable by differential scanning calorimetry (DSC) techniques. However, it is possible to obtain estimates of the critical cooling rates at other […]. The presence of sugars in equimolar concentrations has shown to have no effect on Vcc in the case of monosaccharides and little effect in the case of sucrose for the concentration used in these studies (0.3 M)(Kuleshova et al., Cryobiology 38:199-130, 1999). The Vcc can be inferred from Boutron's semi-empirical theory of glass forming tendency (Boutron, Cryobiology 23:88-102, 1986); it is given by:
To is the initial temperature of crystallization and xg is the amount of ice formed at the critical cooling rate. Many studies in the literature consider a solution to be vitrified when xg≦10^−6 (Liu and McGrath, Proc. 2005 IEEE Eng. Med. Biol. 27th Ann. Conference, p. 7501-7504, 2005). K4 is a constant dependent of the solution and can be determined by DSC. Although there is not data for K4 in the available literature for our solution, some estimation can be done. The values of K4 for 40%, 37.5% and 35% (w/w) of aqueous solutions of 1,2 propanediol are 24.1° C./min, 54.1° C./min and 151° C./min (Ren et al., Cryobiology 31:47-56, 1994). These values of K4 give rise to Vcc values of 8.0×10^2° C./min, 1.8×10^3° C./min and 5.0×10^3° C./min, respectively. So, a tentative value of […] for 1.8 M of 1,2-propanediol is ≈10^4° C./min. […] The exponential fitting of the data is justified by the theory (Ren et al., supra).

[3] = tested on: R1 murine ES cell line; test: Pluripotent properties of ES cells post vitrification (Oct-4, SSEA-1, alkaline phosphatase); type: cell-based; details: 2 M 1,2-propanediol; ultra-fast cooling in QMC
From the text: as §1
as §2, with “minutes. The cells were then spun down at 100×g for 3-5 minutes and resuspended in 1 ml first vitrification solution for 10 minutes. The cells were then spun down at 100×g for 3-5 minutes and resuspended in the second solution at 10×10^6/ml for another 10 minutes.” for “minutes.”

[4] = Vitrification of CPA laden solutions: visible opacity after plunging into liquid nitrogen; type: physicochemical
From the text: One convenient way for determining non-vitrification is the appearance of opacity as a result of ice formation when freezing solutions in a straw. If there is no visible opacity, it is called apparent vitrification. Although opacity could be easily identified in the traditional plastic straw using the naked eye, it is very difficult to do so for the quartz micro-capillary due to its small dimension. Therefore, an experimental setup shown in FIG. 10 was designed for visualization of opacity during cooling by directing two focused lights on the capillary held against a dark background for all the devices shown in FIG. 1 except the stainless steel micro-capillary. […] This setup was used to determine the threshold (minimum) CPA concentration required to completely avoid opacity during cooling. […] Various total CPA concentrations from 12% to 30% by volume with 2% increments were studied using both the open pulled straw and the thin walled quartz micro-capillary. Since 0.2-1 M sucrose or trehalose has been used in essentially all studies for cryopreservation of mammalian oocytes by both slow freezing and vitrification, further studies were also performed using the quartz micro-capillary for solutions with 0.5 M sucrose or trehalose plus 1.5 M, 2.0 M, and 2.5 M PROH, respectively. The solutions can be loaded into the open pulled straw and quartz micro-capillaries by capillary action while it can be expelled out of the capillaries by using a micro-syringe attached with a soft PEP polymer needle tip to push from the end of the capillaries with a bigger opening.

[5] = tested on: primary rat hepatocytes; type: cell-based
Description: The cell viability of hepatocytes was determined immediately post-cryopreservation in quartz micro-capillaries (QMC) in the presence of either no CPA; 0.3 M sucrose; 1.5 M 1,2-propanediol (PROH); 1.5 M PROH and 0.3 M sucrose; or 2.0 M PROH and […]. The number of viable cells was determined in both vitrified samples as well as non-vitrified controls (i.e., no freezing). Cell viability was quantified by the exclusion of trypan blue. […] There was only ˜35% survival for cells loaded with 1.5 M PROH prior to cryopreservation. Sucrose (0.3 M) was then added to the cryopreservation solution with 1.5-2 M PROH. […] When 0.3 M sucrose was added to the cryopreservation solution, the immediate viability jumped to ˜75%.

[6] = Ren et al., cited from earlier work
[7] = both open pulled straw and quartz micro-capillary, FIG. 14

SMILES: OC[C@H]1O[C@H](O[C@H]2O[C@H](CO)[C@@H](O)[C@H](O)[C@H]2O)[C@H](O)[C@@H](O)[C@@H]1O [trehalose]
attachment efficiency (normalized to control) [1]: Only a minimum amount of cells can attach

K4, tentative value ([2]; 1.8 M): ≈ 10^4 ° C./min
Vcc (critical cooling rate to achieve vitrification) ([2]; 35% (w/w) aqueous solution): 5.0×10^3 ° C./min
Vcc (critical cooling rate to achieve vitrification) ([2]; 37.5% (w/w) aqueous solution): 1.8×10^3 ° C./min
Vcc (critical cooling rate to achieve vitrification) ([2]; 40% (w/w) aqueous solution): 8.0×10^2 ° C./min
appearance of solution in quartz micro-capillary after plunging into liquid nitrogen ([4]; 1 M 1,2-propanediol (in FHM)): opaque
appearance of solution in quartz micro-capillary after plunging into liquid nitrogen ([4]; 2 M 1,2-propanediol (in FHM)): clear
appearance of solution in quartz micro-capillary after plunging into liquid nitrogen ([4]; 7% v 1,2-propanediol in FHM media, FIG. 10): whitish appearance
appearance of solution in quartz micro-capillary after plunging into liquid nitrogen ([4]; 14% v 1,2-propanediol in FHM media, FIG. 10): clear appearance
threshold concentration lower than that of ethylene glycol (EG) [4, 7]: ~5 % v
threshold concentration lower than that of the combination of EG and PROH in a 1:1 ratio [4, 7]: 2.5 % v
threshold concentration for the complete absence of opacity ([4]; micro-capillary): ~2 M
SMILES: CC(O)CO (centres unmarked) [1,2-propanediol]
attachment efficiency (normalized to control) [1]: Only a minimum amount of cells can attach
pluripotent properties post-vitrification (Oct-4, SSEA-1, alkaline phosphatase staining) [3]: retained their pluripotent properties
cell survival / immediate viability (exclusion of trypan blue) [5]: ~35%
K4 ([6]; 35% (w/w) aqueous solution): 151 ° C./min
K4 ([6]; 37.5% (w/w) aqueous solution): 54.1 ° C./min
K4 ([6]; 40% (w/w) aqueous solution): 24.1 ° C./min

SMILES: OCCO [Ethylene glycol (EG), ethylene glycol]
threshold concentration for the complete absence of opacity [4]: ~4 M

SMILES: OC[C@H]1O[C@@](CO)(O[C@H]2O[C@H](CO)[C@@H](O)[C@H](O)[C@H]2O)[C@@H](O)[C@@H]1O [sucrose]
cell survival / immediate viability (exclusion of trypan blue) [5]: less than 10%

Reference: patent publication US9538745B2, “Methods for the cryopreservation of cells” (The General Hospital Corporation, priority 2006, dated 2017)
